Patent publication US10654866B2, “Selective estrogen receptor degraders” (Eli Lilly and Company, priority 2018, dated 2020)
Where two headings read alike, the source gives them in different places.

Experiments:
ERα (Y537S mutant) = ERα (Y537S mutant) (Homo sapiens (Human), UniProt P03372, Y537S); assay: ERα (Y537S mutant) competition binding assay; conditions: 3H-estradiol competition; Ki from IC50 by Cheng-Prusoff
Description: Add the test compound at 10 different concentrations ranging from 10,000 nM to 0.5 nM, and determine nonspecific binding in the presence of 1 μM of 1713 estradiol. Incubate the binding reaction (140 μL) for 4 hours at room temperature, and then add cold dextran-charcoal buffer (70 μL) (containing per 50 mL of assay buffer, 0.75 g of charcoal and 0.25 g of dextran) to each reaction. Mix the plates for 8 minutes on an orbital shaker at 4° C. and then centrifuge at 3000 rpm at 4° C. for 10 minutes. Transfer an aliquot (120 μL) of the mixture to another 96-well, white flat bottom plate (Costar) and add Perkin Elmer Optiphase Supermix scintillation fluid (175 μL) to each well. Seal the plates and shake vigorously on an orbital shaker. After an incubation of 2.5 hours, read the plates in a Wallac Microbeta counter. […] Convert the IC50 values for the compound to Ki using Cheng-Prusoff equation.

MCF7 ESR1 wild type = assay: Cell proliferation assay in MCF7; assay type: cell-based, human; conditions: seven days, read-out: Relative IC50 (μM) MCF7 ESR1 wild type
Description: Seed MCF7 (purchased from ATCC HTB-22) cells at a density of 2,000 cells per well in DMEM phenol red free media 10% FBS (20 μL volume) (charcoal stripped) into a clear bottom 384-well cell culture plate. Plate MCF7-ESRY537N-682 (generated by CRISPR/Cas9 gene editing of ESr1 gene in MCF7 cells, clone #682) in DMEM media supplemented with 10% FBS, and 1% penicillin/streptomycin antibiotics at a density of 1000 cells per well. Incubate the plates at 37° C. and 5% CO2. The following day dose the cells with the test compound. Use an Echo 555 acoustic dispenser to prepare test compound serial dilutions (1:3) in a range from 60 μM to 0.003 μM. Dose the cells with the addition of 5 μL from the serial dilution plate to the cell plate, producing a final DMSO concentration of 0.2% with a final test compound concentration dose range between 20 and 0.001 μM. For the maximum point use media containing 0.2% of DMSO and for the minimum point use fulvestrant diluted at 2 μM final concentrations in the growth media containing 0.2% DMSO. After dosing with the test compound, incubate the cell plates at 37° C. and 5% CO2. Seven days after test compound addition, remove the plates from the incubator and add cold EtOH 96% (65 μL) to each well. […] Seal the plates and incubate 1 hour at room temperature on the bench (preserved from light). Scan the plates with ACUMEN EXPLORER™ [Laser-scanning fluorescence microplate cytometer manufactured by TTP LABTECH LTD].

[1] = target: Y537N mutant ERα receptor (Homo sapiens, UniProt P03372, Y537N); assay: PRα inhibition (ERα functional antagonism) cell assay in MCF7-ESR1 Y537N 682 CRISPR cells; assay type: cell-based; conditions: MCF7 Y537N 682 CRISPR cells, 72 hours, % PR positive cells; read-out: Relative IC50
Description: An antagonist in this assay is expected to block the function of the ERα receptor.
Incubate the cells overnight in a cell culture incubator (5% CO2, 95% relative humidity and 37° C.) and allow the cells to attach to the plate. The following day dose the cells with the test compound. Use an Echo 555 acoustic dispenser to prepare compound serial dilutions (1:3) in a range from 6 μM to 0.0003 μM. Dose the cells with the addition of 5 μL from the serial dilution plate to the cell plate producing a final DMSO concentration of 0.2% with a final test compound concentration dose range between 2 and 0.0001 μM. For the maximum point use media containing 0.2% of DMSO and for the minimum point, use fulvestrant diluted at 2 μM final concentrations in the growth media containing 0.2% DMSO. After dosing with test compound, incubate the cell plates at 37° C. and 5% CO2 for 72 hours. Fix the cells by adding 14% para-formaldehyde (10 μL) for 30 minutes at room temperature. Wash the cells with PBS (1×20 μL) and incubate with PBS (20 μL) of containing 0.5% (v/v) TWEEN® 20 for 1 hour. Wash the cells with PBS (2×20 μL) 0.05% TWEEN® 20, and block with 3% BSA/PBS 0.05% TWEEN® 20, 0.1% TRITON™ X-100 (20 μL/well) for 1 hour at room temperature. Add 1:500 primary antibody (20 μL) (PR monoclonal mouse anti-human antibody, clone PgR 636 Dako, M3569) dilution in 1% BSA/PBS 0.05 TWEEN® 20 per well, seal the plates and incubate overnight at 4° C.
The following day, wash the cells with PBS […] (2×20 μL) and incubate with secondary antibody (20 μL/well) (1:1000 dilution, Goat anti-rabbit IgM ALEXA FLUOR™ 488) in PBS 1% BSA for 105 minutes at room temperature. […] Seal the plates and incubate 1 hour at room temperature on the bench (preserved from light). Scan the plates with ACUMEN EXPLORER™ [Laser-scanning fluorescence microplate cytometer manufactured by TTP LABTECH LTD] to measure PRα. Image analysis is based on cellular fluorescent signals for identifying positive cells. Identify PR positive cells by mean intensity. Use total intensity at 575-640 nm from propidium iodide/DNA to identify individual cells. Assay output is % PR positive cells. Determine the IC50 by curve fitting to a four parameter logistic for each output using GENE DATA™.

Sequence of ERα (Y537S mutant) (P03372 whole entry Y537S): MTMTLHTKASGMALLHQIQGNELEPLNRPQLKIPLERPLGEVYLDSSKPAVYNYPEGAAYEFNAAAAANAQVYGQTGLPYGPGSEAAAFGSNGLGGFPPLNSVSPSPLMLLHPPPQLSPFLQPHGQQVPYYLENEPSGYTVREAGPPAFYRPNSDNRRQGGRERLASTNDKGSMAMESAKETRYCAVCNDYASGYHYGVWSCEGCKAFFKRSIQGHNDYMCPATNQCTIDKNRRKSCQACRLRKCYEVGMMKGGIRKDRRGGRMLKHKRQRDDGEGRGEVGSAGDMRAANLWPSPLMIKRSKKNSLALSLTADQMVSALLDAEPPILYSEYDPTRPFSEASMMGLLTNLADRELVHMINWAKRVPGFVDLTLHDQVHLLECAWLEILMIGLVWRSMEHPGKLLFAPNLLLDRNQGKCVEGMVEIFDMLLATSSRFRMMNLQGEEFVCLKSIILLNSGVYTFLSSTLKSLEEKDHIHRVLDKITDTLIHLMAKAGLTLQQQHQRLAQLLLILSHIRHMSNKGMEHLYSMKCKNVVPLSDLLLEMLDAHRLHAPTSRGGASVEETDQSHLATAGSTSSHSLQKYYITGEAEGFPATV

Oc1ccc2c3c(cnc2c1)-c1cccc(C(F)(F)F)c1OC3c1ccc(OCCN2CC(CF)C2)cc1 (racemic) [Example 2, 5-(4-{2-[3-(fluoromethyl)azetidin-1-yl]ethoxy}phenyl)-7-(trifluoromethyl)-5H-[1]benzopyrano[4,3-c]quinolin-2-ol]
Ki (ERα (Y537S mutant)): 6.78 nM
IC50 (MCF7 ESR1 wild type; Homo sapiens, MCF7, […]): 0.00425 µM
IC50 [1]: 14.5 ± 2.62 nM

Oc1ccc2c3c(cnc2c1)-c1cccc(Cl)c1OC3c1ccc(OCCN2CC(CF)C2)cc1 (racemic) [Example 4, 7-chloro-5-(4-{2-[3-(fluoromethyl)azetidin-1-yl]ethoxy}phenyl)-5H-[1]benzopyrano[4,3-c]quinolin-2-ol]
Ki (ERα (Y537S mutant)): 12.1 nM
IC50 (MCF7 ESR1 wild type; Homo sapiens, MCF7, […]): 0.0286 µM
IC50 [1]: 38.5 ± 3.87 nM

Oc1ccc2c3c(cnc2c1)-c1ccc(F)cc1OC3c1ccc(OCCN2CC(CF)C2)cc1 (racemic) [Example 5, 8-fluoro-5-(4-{2-[3-(fluoromethyl)azetidin-1-yl]ethoxy}phenyl)-5H-[1]benzopyrano[4,3-c]quinolin-2-ol]
Ki (ERα (Y537S mutant)): 19.5 nM
IC50 (MCF7 ESR1 wild type; Homo sapiens, MCF7, […]): 0.0801 µM
IC50 [1]: 66.1 ± 15.5 nM

Oc1ccc2c3c(cnc2c1)-c1cccc(F)c1OC3c1ccc(OCCN2CC(CF)C2)cc1 (racemic) [Example 6, 7-fluoro-5-(4-{2-[3-(fluoromethyl)azetidin-1-yl]ethoxy}phenyl)-5H-[1]benzopyrano[4,3-c]quinolin-2-ol]
Ki (ERα (Y537S mutant)): 15.8 nM
IC50 (MCF7 ESR1 wild type; Homo sapiens, MCF7, […]): 0.0513 µM
IC50 [1]: 63.2 ± 16.1 nM

Cc1ccc2c(c1)OC(c1ccc(OCCN3CC(CF)C3)cc1)c1c-2cnc2cc(O)ccc12 (racemic) [Example 7, 5-(4-{2-[3-(fluoromethyl)azetidin-1-yl]ethoxy}phenyl)-8-methyl-5H-[1]benzopyrano[4,3-c]quinolin-2-ol]
Ki (ERα (Y537S mutant)): 8.55 nM
IC50 (MCF7 ESR1 wild type; Homo sapiens, MCF7, […]): 0.019 µM
IC50 [1]: 127 nM

Cc1cccc2c1OC(c1ccc(OCCN3CC(CF)C3)cc1)c1c-2cnc2cc(O)ccc12 (racemic) [Example 8, 5-(4-{2-[3-(fluoromethyl)azetidin-1-yl]ethoxy}phenyl)-7-methyl-5H-[1]benzopyrano[4,3-c]quinolin-2-ol]
Ki (ERα (Y537S mutant)): 11.4 nM
IC50 (MCF7 ESR1 wild type; Homo sapiens, MCF7, […]): 0.0416 µM
IC50 [1]: 41.2 ± 6.57 nM

Oc1ccc2c3c(cnc2c1)-c1cccc(C(F)(F)F)c1OC3c1ccc(OCCN2CC(CF)C2)cc1 (single isomer, unassigned) [Example 2A, 5-(4-{2-[3-(Fluoromethyl)azetidin-1-yl]ethoxy}phenyl)-7-(trifluoromethyl)-5H-[1]benzopyrano[4,3-c]quinolin-2-ol]
Ki (ERα (Y537S mutant)): 7.92 nM
IC50 (MCF7 ESR1 wild type): 0.00612 µM
IC50 [1]: 24.9 ± 7.39 nM

Oc1ccc2c3c(cnc2c1)-c1cccc(C(F)(F)F)c1OC3c1ccc(OCCN2CC(CF)C2)cc1 (single isomer, unassigned) [Example 2B, 5-(4-{2-[3-(Fluoromethyl)azetidin-1-yl]ethoxy}phenyl)-7-(trifluoromethyl)-5H-[1]benzopyrano[4,3-c]quinolin-2-ol]
Ki (ERα (Y537S mutant)): 294 nM
IC50 (MCF7 ESR1 wild type): 0.405 µM
IC50 [1]: 1640 ± 223 nM

Oc1ccc2c3c(cnc2c1)-c1cccc(Cl)c1OC3c1ccc(OCCN2CC(CF)C2)cc1 (single isomer, unassigned) [Example 4A, 7-Chloro-5-(4-{2-[3-(fluoromethyl)azetidin-1-yl]ethoxy}phenyl)-5H-[1]benzopyrano[4,3-c]quinolin-2-ol]
Ki (ERα (Y537S mutant)): 55 nM
IC50 (MCF7 ESR1 wild type): 0.286 µM
IC50 [1]: 505 nM

Oc1ccc2c3c(cnc2c1)-c1cccc(Cl)c1OC3c1ccc(OCCN2CC(CF)C2)cc1 (single isomer, unassigned) [Example 4B, 7-Chloro-5-(4-{2-[3-(fluoromethyl)azetidin-1-yl]ethoxy}phenyl)-5H-[1]benzopyrano[4,3-c]quinolin-2-ol]
Ki (ERα (Y537S mutant)): 2.34 nM
IC50 (MCF7 ESR1 wild type): 0.0035 µM
IC50 [1]: 11.8 nM

Oc1ccc2c3c(cnc2c1)-c1ccc(F)cc1OC3c1ccc(OCCN2CC(CF)C2)cc1 (single isomer, unassigned) [Example 5A, 8-Fluoro-5-(4-{2-[3-(fluoromethyl)azetidin-1-yl]ethoxy}phenyl)-5H-[1]benzopyrano[4,3-c]quinolin-2-ol]
Ki (ERα (Y537S mutant)): 81.2 nM
IC50 (MCF7 ESR1 wild type): 0.41 µM
IC50 [1]: 394 nM

Oc1ccc2c3c(cnc2c1)-c1ccc(F)cc1OC3c1ccc(OCCN2CC(CF)C2)cc1 (single isomer, unassigned) [Example 5B, 8-Fluoro-5-(4-{2-[3-(fluoromethyl)azetidin-1-yl]ethoxy}phenyl)-5H-[1]benzopyrano[4,3-c]quinolin-2-ol]
Ki (ERα (Y537S mutant)): 6.56 nM
IC50 (MCF7 ESR1 wild type): 0.00767 µM
IC50 [1]: 18.2 ± 9.82 nM

Oc1ccc2c3c(cnc2c1)-c1cccc(F)c1OC3c1ccc(OCCN2CC(CF)C2)cc1 (single isomer, unassigned) [Example 6A, 7-Fluoro-5-(4-{2-[3-(fluoromethyl)azetidin-1-yl]ethoxy}phenyl)-5H-[1]benzopyrano[4,3-c]quinolin-2-ol]
Ki (ERα (Y537S mutant)): 46 nM
IC50 (MCF7 ESR1 wild type; Homo sapiens, MCF7, […]): 0.0759 µM
IC50 [1]: 236 nM

Oc1ccc2c3c(cnc2c1)-c1cccc(F)c1OC3c1ccc(OCCN2CC(CF)C2)cc1 (single isomer, unassigned) [Example 6B, 7-Fluoro-5-(4-{2-[3-(fluoromethyl)azetidin-1-yl]ethoxy}phenyl)-5H-[1]benzopyrano[4,3-c]quinolin-2-ol]
Ki (ERα (Y537S mutant)): 5.71 nM
IC50 [1]: 13.6 nM

Cc1cccc2c1OC(c1ccc(OCCN3CC(CF)C3)cc1)c1c-2cnc2cc(O)ccc12 (single isomer, unassigned) [Example 8A, 5-(4-{2-[3-(Fluoromethyl)azetidin-1-yl]ethoxy}phenyl)-7-methyl-5H-[1]benzopyrano[4,3-c]quinolin-2-ol]
Ki (ERα (Y537S mutant)): 66.9 nM
IC50 (MCF7 ESR1 wild type): 0.174 µM
IC50 [1]: 434 ± 195 nM

Cc1cccc2c1OC(c1ccc(OCCN3CC(CF)C3)cc1)c1c-2cnc2cc(O)ccc12 (single isomer, unassigned) [Example 8B, 5-(4-{2-[3-(Fluoromethyl)azetidin-1-yl]ethoxy}phenyl)-7-methyl-5H-[1]benzopyrano[4,3-c]quinolin-2-ol]
Ki (ERα (Y537S mutant)): 5.44 nM
IC50 (MCF7 ESR1 wild type): 0.00508 µM
IC50 [1]: 8.93 ± 3.83 nM
